According to ChEMBL document CHEMBL5674860, “Optimized Dual-Glo Assay to identify co-culture-induced drug vulnerabilities in 3D CRC models” (2024):
Several values for one entry are separate records, joined by “and”; a condition that tells them apart may be missing. Equal values may be shown once.

How the values were obtained:
Format in all cases: functional, Homo sapiens
Set-up in all cases: dose or concentration left out as unconfirmed
[1] = system: Colon cancer organoid; experiment: Optimized Dual-Glo assay to identify co-culture induced drug vulnerabilities using donated chemical probes and chemogenomics kinase set in O20 CRC organoid and F20 CAF mono and co-culture. […] Cell viability is reported both mono and co-culture models.
[2] = system: Colon cancer organoid; experiment: Optimized Dual-Glo assay to identify co-culture induced drug vulnerabilities using donated chemical probes and chemogenomics kinase set in O06 CRC organoid and F06 CAF mono and co-culture. […] Cell viability is reported both mono and co-culture models.
[3] = system: Colon cancer organoid; experiment: Optimized Dual-Glo assay to identify co-culture induced drug vulnerabilities using donated chemical probes and chemogenomics kinase set in O14 CRC organoid and F14 CAF mono and co-culture. […] Cell viability is reported both mono and co-culture models.
[4] = Culture type Co-Culture, Transduced with Lucferase2-P2A-EGFP lentivirus
[5] = Culture type Co-Culture, Transduced with Renilla-dsRed lentivirus
[6] = Culture type Mono-Culture, Transduced with Lucferase2-P2A-EGFP lentivirus
[7] = Culture type Mono-Culture, Transduced with Renilla-dsRed lentivirus

SMILES	Cell Viability [1, 4]	Cell Viability [1, 5]	Cell Viability [1, 6]	Cell Viability [1, 7]	Cell Viability [2, 4]	Cell Viability [2, 5]	Cell Viability [2, 6]	Cell Viability [2, 7]	Cell Viability [3, 4]	Cell Viability [3, 5]	Cell Viability [3, 6]	Cell Viability [3, 7]
COCc1nc2cnc3cc(-c4c(C)noc4C)c(OC[C@H]4CCNC4)cc3c2n1[C@H](C)c1ccccc1 [GSK778]	27.5933%	143.906%	31.8546%	105.119%	81.063%	183.714%	53.5183%	186.322%	59.3767%	280.444%	39.3913%	175.876%
Cc1noc([C@H]2C[C@@H](c3ccc(C(F)(F)F)cc3)CN(C(=O)N3CCS(=O)(=O)C3)C2)n1 [BAY-448]	115.252%	84.5218%	119.935%	108.615%	105.176%	127.928%	104.997%	116.857%	96.3881%	112.512%	127.621%	97.5385%
Nc1ncnc2c1ccn2[C@@H]1O[C@H]([C@H](O)c2ccccc2)[C@@H](O)[C@H]1O	28.437%	179.519%	41.1766%	89.3267%	22.7938%	108.338%	39.3105%	99.7719%	19.223%	140.259%	27.9797%	80.8035%
Cc1ccc(-c2ccc3c(ccc4sc5c(c43)NC[C@@H](C)NC5=O)n2)cn1	152.499%	70.7863%	154.638%	67.5844%	100.355%	85.371%	114.604%	88.0896%	126.339%	65.0441%	182.208%	70.7861%
CC1=C(C)C(=O)C(C(C)(C)CC(=O)N(CCCCSC[C@H]2O[C@@H](n3cnc4c(N)ncnc43)[C@@H]3OC(C)(C)O[C@@H]32)Cc2cccc(-c3ccc(Cl)cc3)c2)=C(C)C1=O	97.2624%	117.278%	134.873%	88.9157%	82.0361%	129.013%	89.6281%	110.922%	111.496%	127.734%	88.6013%	108.216%
CN(C)C/C=C/C(=O)Nc1cc2c(Nc3ccc(F)c(Cl)c3)ncnc2cc1O[C@H]1CCOC1.O=C(O)/C=C\C(=O)O.O=C(O)/C=C\C(=O)O [AFATINIB DIMALEATE]	37.5755%	73.123%	10.3381%	31.0858%	26.678%	56.3894%	6.9021%	44.0198%	29.2387%	54.1607%	5.719%	44.7132%
C[C@H]1CC(=O)Nc2cc(C(=O)NCCC3CC3)ccc2N1C(=O)N1CC2CC2C1 (stereo partly specified)	105.905%	112.87%	104.527%	89.0255%	115.835%	132.849%	119.799%	120.051%	72.2289%	101.41%	80.5063%	95.2313%
COc1cc(-c2cn([C@H]3CCc4ccccc4N(CC(F)(F)F)C3=O)nn2)ccc1-n1ccc(C)n1	70.0794%	119.033%	80.8006%	95.6811%	93.4988%	122.107%	86.5665%	106.482%	109.774%	96.1466%	102.384%	99.9901%
COc1ccccc1-c1cc(N2CCN(C(=O)OC(C)(C)C)CC2)c(N)nn1	122.85%	160.936%	122.916%	117.085%	99.4085%	102.712%	83.0998%	116.6%	99.785%	110.211%	110.079%	98.4172%
Cn1cc(Cl)c2c(Oc3c(F)cc(Nc4cc(Cl)nc(N)n4)cc3F)ccnc21 [BAY-4900]	91.184%	109.2%	84.5951%	91.9324%	121.536%	149.241%	59.0633%	101.592%	109.877%	85.9396%	108.551%	92.3665%
CSc1cccnc1N1CCN(Cc2nc3ccccc3[nH]2)CC1 [A-769]	125.432%	98.3481%	117.315%	102.928%	120.489%	139.823%	101.067%	109.755%	93.5096%	109.84%	108.274%	96.7022%
CCn1cc(-c2ccnc3[nH]c(-c4cccc(CN(C)C)c4)cc23)c(-c2ccc(NC(=O)N(C)C)cc2)n1 [GSK-1070916]	9.493%	207.056%	12.2557%	100.034%	8.589%	116.692%	3.637%	93.7927%	29.7048%	205.838%	28.675%	102.681%
CN1CCN(c2ccc(OC(F)(F)F)c(Nc3ncc4c(n3)-c3c(c(C(N)=O)nn3CCO)CC4)c2)CC1 [ONVANSERTIB]	2%	184.086%	2.415%	100.341%	2.834%	160.245%	4.275%	93.5315%	3.512%	162.986%	6.811%	81.4434%
CN(C)[C@H]1CCN(c2cc(-c3ccccc3)nc3ccnn23)C1 [(S)-ZINC-3573]	92.3796%	112.128%	114.664%	102.75%	87.7689%	121.05%	76.4871%	118.538%	106.455%	83.2705%	93.2108%	87.5469%
Cc1c(N2CCCC2)nc2ccc(Br)cc2c1C(=O)NC[C@H](CCC(=O)O)c1ccccc1Cl [BAY-6672]	83.0644%	119.315%	90.6805%	98.6918%	132.373%	142.298%	78.4477%	99.1733%	130.472%	109.165%	108.929%	91.644%
CCCS(=O)(=O)c1nc(NC2CC2)cc(-c2ccc3c(ccn3C3CC(C)(C)NC(C)(C)C3)c2)n1	90.8821% and 132.572%	94.2313% and 119.463%	112.848% and 138.911%	68.5534% and 89.7285%	80.022% and 93.4216%	88.9327% and 142.491%	57.3495% and 53.1993%	66.0436% and 80.8259%	89.4811% and 97.6343%	131.118% and 106.572%	78.7545% and 88.3769%	100.347% and 100.989%
O=C(Nc1cnc(Oc2ccc(F)cc2)nc1)N1CCc2ncccc2[C@@H]1c1ccc(F)cc1 [BAY-899]	151.718%	104.61%	76.6403%	85.9791%	92.2798%	100.101%	137.923%	100.535%	76.8335%	114.239%	91.8718%	105.629%
COc1cc(Nc2ncc3c(n2)-c2ccc(Cl)cc2C(c2c(F)cccc2OC)=NC3)ccc1C(=O)O [ALISERTIB]	6.089%	322.747%	10.9419%	116.531%	20.0499%	286.415%	8.923%	120.563%	16.1373%	168.728%	26.2121%	103.392%
